Results taken from patent US10364255B2, “Heteroaromatic compounds as Vanin inhibitors” (Boehringer Ingelheim International GmbH, priority 2017, dated 2019).
Where two headings read alike, the source gives them in different places.

Tests used:
[1] = molecular target: FLAG-tagged Vanin-1 (AA 22-493, T26I) (Homo sapiens (Human), UniProt O95497, T26I); test: Vanin-1 enzymatic assay (pantothenic acid formation, RapidFire Mass Spectrometry); format: biochemical; settings: read-out: VNN 1 IC50
Experimental: The test compounds are dissolved in 100% DMSO at a concentration of 10 mM and in a first step diluted in DMSO to a concentration of 5 mM, followed by serial dilution steps in 100% DMSO. Dilution factor and number of dilution steps may vary according to needs. Typically 8 different concentrations by 1:5 dilutions are prepared, a further intermediate dilutions of the substances is carried out with assay buffer resulting in 1% final DMSO concentration in the assay.
Method 1): 0.15 nM of FLAG-tagged Vanin-1 (AA 22-493, T26I, produced internally) and test compounds are incubated at room temperature for 15 minutes in assay buffer (1 mM DTT, 0.0025% Brij-35, 50 mM HEPES, pH7.5). 3 μM D-Pantethine (Sigma, Cat#P2125-5G) in assay buffer is added and incubated for additional 30 minutes at room temperature. Reaction is stopped by adding equal volume of stop solution as the reaction mixture to reach 5 nM Nevirapine (as an internal standard) and 0.5% TFA. Assay plates are centrifuged for 2 minutes and the formation of pantothenic acid is detected by RapidFire Mass Spectrometry (mobile phase A: 0.1% formic acid in water, mobile phase B: 100% methanol) using graphitic carbon cartridge (Agilent Cat #G9206A).
Method 2): 0.1 nM of FLAG-tagged Vanin-1 (AA 22-493, T26I, produced internally) and test compounds are incubated at room temperature for 20 minutes in assay buffer (1 mM DTT, 0.0025% Brij-35, 50 mM HEPES, pH7.5). D-Pantethine (Sigma, Cat#P2125-5G) in assay buffer is added (final concentration 3 μM) and incubated for additional 30 minutes at room temperature. Total assay volume typically is 40 μl but might be adjusted according to needs. Reaction is stopped by adding equal volume of stop solution as the reaction mixture to reach 100 nM HD-pantothenic acid (as an internal standard) and 1% TFA. Assay plates are centrifuged for 2 minutes and the formation of pantothenic acid is detected by RapidFire Mass Spectrometry (mobile phase A: 0.1% formic acid and 0.01% trifluoroacetic acid in water; mobile phase B: 47.5% acetonitrile, 47.5% methanol, 0.1% formic acid and 0.01% trifluoroacetic acid in water) using a C18, 12 μL cartridge (Agilent Cat #G9205A).
The values given in Table I result from measurements of one or more samples. In case of multiple measurements the geometric mean values determined by method 1 and/or method 2 are given.

human whole blood = test: Human Whole Blood assay (HWB; pantothenic acid formation from D-Pantethine); format: cell-based; settings: 10 μM D-Pantethine, 30 minutes at room temperature, geometric mean if multiple measurements
Experimental: 250 μl human whole blood and 7 μl pre-diluted compound in RPMI 1640 media are incubated at room temperature for 15 minutes on an orbital shaker. 10 μl of D-Pantethine (Sigma, Cat#P2125-5G) is added, resulting in 10 μM final concentration, for additional 30 minutes incubation at room temperature. The reaction is stopped by placed on ice for 5 minutes. Assay plates are centrifuged at 1800 rpm at 4° C. for 10 minutes. 80 μl of plasma is mixed with 80 μl of ice-cold acetonitrile and is left on ice for 5 minutes. The reaction mixture is centrifuged at 4000 rpm for 10 min at 4° C. 50 μl of the supernatant is mixed with 150 μl of ice-cold H2O. The above solution is mixed with equal volume of stop solution to reach 5 nM Nevirapine (as an internal standard) and 0.4% TFA. The mixture is centrifuged at 4000 rpm for 10 minutes. The formation of pantothenic acid is detected by RapidFire Mass Spectrometry (mobile phase A: 0.1% Formic acid in water, mobile phase B: 100% Methanol) using graphitic carbon cartridge (Agilent Cat #G9206A). Please see Table I for results. The values given in Table I result from measurements of one or more samples. In case of multiple measurements the geometric mean values are given.

[2] = VNN1-assay method 1: 0.15 nM Vanin-1, 15 min preincubation, 3 μM D-Pantethine, geometric mean if multiple measurements
[3] = VNN1-assay methods 1 + 2: geometric mean of values determined by method 1 and method 2
[4] = VNN1-assay method 2: 0.1 nM Vanin-1, 20 min preincubation, 3 μM D-Pantethine, geometric mean if multiple measurements

Sequence of FLAG-tagged Vanin-1 (AA 22-493, T26I) (O95497 22-493 T26I): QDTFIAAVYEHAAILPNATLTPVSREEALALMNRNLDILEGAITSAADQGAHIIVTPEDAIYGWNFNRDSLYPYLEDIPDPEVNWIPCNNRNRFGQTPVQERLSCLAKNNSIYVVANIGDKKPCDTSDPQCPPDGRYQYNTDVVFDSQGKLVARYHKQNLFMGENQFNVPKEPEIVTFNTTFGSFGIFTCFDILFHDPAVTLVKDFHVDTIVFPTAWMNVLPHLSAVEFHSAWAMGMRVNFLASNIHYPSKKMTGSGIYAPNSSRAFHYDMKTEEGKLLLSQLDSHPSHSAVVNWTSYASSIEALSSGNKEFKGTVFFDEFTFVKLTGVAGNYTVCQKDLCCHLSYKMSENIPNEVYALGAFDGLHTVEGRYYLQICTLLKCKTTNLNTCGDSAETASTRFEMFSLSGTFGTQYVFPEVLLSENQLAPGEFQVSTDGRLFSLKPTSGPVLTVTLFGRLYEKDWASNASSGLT

Row | SMILES | IC50 [1, 2] [nM] | IC50 [1, 3] [nM] | IC50 (human whole blood; Homo sapiens, 0.5 h) [nM] | IC50 [1, 4] [nM] | IC50 (human whole blood) [nM]
1 | O=C(c1cnc2c(c1)OC[C@H](c1ccccc1)N2)N1CCC(c2ccncc2)C1 (single isomer, unassigned) [Example 11] | 19 | – | – | – | 3700
2 | O=C(c1cnc2c(c1)OC[C@H](c1ccccc1)N2)N1CCC(c2ccncc2)C1 (single isomer, unassigned) [Example 12] | 1.8 | – | – | – | 330
3 | O=C(c1cnc2c(c1)OCC1(CC1)N2)N1CCC(c2ccncc2)C1 (single isomer, unassigned) [Example 20] | 1.9 | – | – | – | 130
4 | O=C(c1cnc2c(c1)OCC1(CC1)N2)N1CCC(c2ccncc2)C1 (single isomer, unassigned) [Example 22] | 0.4 | – | – | – | 37
5 | CC[C@H]1COc2cc(C(=O)N3CCC(c4ccncc4)C3)cnc2N1 (some centres unmarked) [Example 5] | – | 3.1 | 76 | – | –
6 | CC[C@@H]1COc2cc(C(=O)N3CCC(c4ccncc4)C3)cnc2N1 (some centres unmarked) [Example 6] | 8.9 | – | 99 | – | –
7 | O=C(c1cnc2c(c1)OC[C@@H](c1ccccc1)N2)N1CCC(c2ccncc2)C1 (some centres unmarked) [Example 7] | 6200 | – | – | – | –
8 | CC(C)[C@@H]1COc2cc(C(=O)N3CCC(c4ccncc4)C3)cnc2N1 (some centres unmarked) [Example 8] | 17.2 | – | – | – | –
9 | CC(C)[C@H]1COc2cc(C(=O)N3CCC(c4ccncc4)C3)cnc2N1 (some centres unmarked) [Example 10] | 2.4 | – | 146 | – | –
10 | O=C(c1cnc2c(c1)OCC1(CC1)N2)N1CC[C@H](N2CCCC2=O)C1 [Example 15] | – | – | 7.8 | 0.7 | –
11 | O=C(c1cnc2c(c1)OCC1(CC1)N2)N1CC[C@H](N2CCOC2=O)C1 [Example 16] | – | – | 8.9 | 0.6 | –
12 | CN(C(=O)C1COC1)[C@H]1CCN(C(=O)c2cnc3c(c2)OCC2(CC2)N3)C1 [Example 18] | – | – | 12 | 0.9 | –
13 | CN([C@H]1CCN(C(=O)c2cnc3c(c2)OCC2(CC2)N3)C1)S(=O)(=O)C1CC1 [Example 19] | – | – | 39 | 2.3 | –
14 | CN1C(=O)CC[C@]12CCN(C(=O)c1cnc3c(c1)OCCC1(CC1)N3)C2 [Example 23] | – | – | 50 | 8.1 | –
15 | CN1C(=O)CC[C@@]12CCN(C(=O)c1cnc3c(c1)OCCC1(CC1)N3)C2 [Example 24] | – | – | 6.5 | 0.6 | –
16 | O=C(c1cnc2c(c1)OCCC1(CC1)N2)N1CC[C@H](N2CCCC2=O)C1 [Example 25] | – | – | 3.1 | 0.1 | –
17 | O=C(c1cnc2c(c1)OCCC1(CC1)N2)N1CC[C@H](N2CCOC2=O)C1 [Example 26] | – | – | 5.9 | 0.2 | –
18 | CN1C(=O)CCC12CCN(C(=O)c1cnc3c(c1)OCCC1(CC1)N3)C2 (centres unmarked) [Example 27] | – | – | 11 | 1.09 | –
19 | C[C@@H]1COc2cc(C(=O)N3CCC(c4cccnc4)C3)cnc2N1 (some centres unmarked) [Example 28] | 3.8 | – | 168 | – | –
20 | CC(=O)N(C)[C@H]1CCN(C(=O)c2cnc3c(c2)OC[C@H](c2ccccc2)N3)C1 [Example 30] | – | 2.4 | 43 | – | –
21 | CC(=O)N(C)[C@H]1CCN(C(=O)c2cnc3c(c2)OC[C@@H](c2ccccc2)N3)C1 [Example 31] | – | 1750 | – | – | –
22 | C[C@@H]1CNc2ncc(C(=O)N3CCC(c4ccncc4)C3)cc2O1 (some centres unmarked) [Example 33] | 2.5 | – | 34 | – | –
23 | C[C@H]1CNc2ncc(C(=O)N3CCC(c4ccncc4)C3)cc2O1 (some centres unmarked) [Example 34] | – | 3.5 | 44 | – | –
24 | O=C(c1cnc2c(c1)OCCN2)N1CCC(c2ccncc2)C1 (centres unmarked) [Example 38] | – | – | 210 | – | –
25 | C[C@H]1COc2cc(C(=O)N3CCC(c4ccncc4)C3)cnc2N1 (some centres unmarked) [Example 40] | – | 1.7 | 87 | – | –
26 | O=C(c1cnc2c(c1)O[C@H](CO)CN2)N1CCC(c2ccncc2)C1 (some centres unmarked) [Example 43] | – | – | 66 | – | –

Further lines, with some results ahead:

Row | IC50 [1, 2] [nM] | IC50 [1, 3] [nM] | IC50 (human whole blood; Homo sapiens, 0.5 h) [nM] | IC50 [1, 4] [nM] | SMILES | IC50 (human whole blood) [nM]
27 | – | 3.3 | 20 | – | CC[C@@H]1COc2cc(C(=O)N3CC[C@H](N(C)C(C)=O)C3)cnc2N1 [Example 1] | –
28 | 3.6 | – | 26 | – | CC(=O)N(C)[C@H]1CCN(C(=O)c2cnc3c(c2)OC[C@@H](C(C)C)N3)C1 [Example 2] | –
29 | 1.3 | – | 22 | – | CC[C@H]1COc2cc(C(=O)N3CC[C@H](N(C)C(C)=O)C3)cnc2N1 [Example 4] | –
30 | 1.5 | – | 23 | – | CC(=O)N(C)[C@H]1CCN(C(=O)c2cnc3c(c2)OC[C@H](C(C)C)N3)C1 [Example 9] | –
31 | – | 1.8 | 23 | – | CC(=O)N(C)[C@H]1CCN(C(=O)c2cnc3c(c2)OC[C@H](C)N3)C1 [Example 13] | –
32 | – | – | 12 | – | CC(=O)N(C)[C@H]1CCN(C(=O)c2cnc3c(c2)OCC(C)(C)N3)C1 [Example 14] | –
33 | – | – | 8.8 | 0.7 | CN(C(=O)C1CC1)[C@H]1CCN(C(=O)c2cnc3c(c2)OCC2(CC2)N3)C1 [Example 17] | –
34 | – | 0.4 | 10 | – | CC(=O)N(C)[C@H]1CCN(C(=O)c2cnc3c(c2)OCC2(CC2)N3)C1 [Example 21] | –
35 | – | 3.3 | 28 | – | CC(=O)N(C)[C@H]1CCN(C(=O)c2cnc3c(c2)OC[C@@H](C)N3)C1 [Example 29] | –
36 | – | – | 14 | – | CC(=O)N(C)[C@H]1CCN(C(=O)c2cnc3c(c2)O[C@H](C)CN3)C1 [Example 32] | –
37 | – | 26.1 | 190 | – | CC(=O)N(C)[C@H]1CCN(C(=O)c2cnc3c(c2)O[C@@H](C)CN3)C1 [Example 35] | –
38 | – | 0.2 | 6.3 | – | CC(=O)N(C)[C@H]1CCN(C(=O)c2cnc3c(c2)OCCC2(CC2)N3)C1 [Example 37] | –
39 | – | – | 120 | – | CC(=O)N(C)[C@H]1CCN(C(=O)c2cnc3c(c2)OCCN3)C1 [Example 39] | –
40 | – | – | 18 | – | CC(=O)N(C)[C@H]1CCN(C(=O)c2cnc3c(c2)O[C@H](CO)CN3)C1 [Example 41] | –
41 | – | 1.1 | 16 | – | CC(=O)N(C)[C@H]1CCN(C(=O)c2cnc3c(c2)OCC(C)(C)CN3)C1 [Example 42] | –
42 | – | – | 23 | – | CC(=O)N(C)[C@H]1CCN(C(=O)c2cnc3c(c2)OCCCN3)C1 [Example 44] | –
